{"source": "patent US20140127185A1", "about": "“METHODS AND COMPOSITIONS USING NEUROPROTECTIVE STEROIDS AND THROMBOLYTIC AGENTS” (priority 2012, published 2014)", "key": {"[1]": {"tested_on": "MMP-9", "experiment": "Active MMP-9 fluorometric FRET peptide assay of ischemic cortex lysates", "type": "in vivo, rat", "details": "24 hours after ischemia; tPA at 4.5 hours; vs control and tMCAO groups", "method": "A Fluorimetric SensoLyte™ 490 kit (AnaSpec Corp., San Jose, Calif. USA) is used to quantify the specific enzymetic activity of active MMP-9 by using a fluorescence resonance energy transfer peptide containing a fluorescent donor and quenching acceptor (Lin, Hou et al. 2008). The samples (100 μg) are placed in a 96-well plate containing 50 μl of assay buffer. The proteolytic resonance energy transfer peptide is expressed as a fold change in fluorescence intensity at excitation of 355 nm/emission of 460 nm.\nFor in vivo evaluation, Male SD rats were subjected to MCAO, reperfused at 4.5 hours and then treated with tPA only (5 mg/kg body weight via femoral vein) at 4.5 hours post-stroke or with progesterone (intraperitoneally) at 2 hours post-stroke plus tPA at 4.5 hours post-stroke. Rats were killed at 24 hours post-ischemia and their brains perfused for evaluation of cerebral hemorrhage, brain swelling, BBB permeability, MMP-9 activity, and the alteration of tight junction proteins.\nTo directly determine MMP-9 activity after ischemia, proteolytic activity of MMP-9 was measured using a fluorescence resonance energy transfer peptide. […] Consistent with the Western blot results, exposure of cells to H/R and tPA for 9 hours reduced the detected levels of occludin, as compared to control bEND 3 cells, while MMP-9 levels were increased in cells exposed to H/R and tPA for 9 hours."}, "[2]": {"tested_on": "occludin", "experiment": "Occludin in H/R-treated bEND3 cells (Western blot, immunofluorescence)", "type": "cell-based, mouse", "method": "An immortalized mouse brain endothelial cell line (bEND 3) is purchased from American Type Culture Collection (ATCC, VA, USA) and cultured in Dulbecco's modified Eagle Medium (DMEM, ATCC) supplemented with 10% fetal bovine serum (ATCC). bEND 3 cells are seeded onto the luminal side of a filter (0.4 μm pore size; Corning, Lowell, MCA) coated with fibronectin (5 μg/ml) in 12-well plates for a transendothelial electrical resistance (TEER) test; and in 100-mm dishes for Western blot studies. Cell cultures are incubated at 37° C. in a 5%/95% mixture of CO2 and atmospheric air, and the medium is replaced every 3 days.\nPeri-infarct cortical tissue is processed for protein analysis. Tissues are homogenized in T-per (Pierce, Rockford, Ill.) containing protease inhibitor cocktail (P8340, Sigma). Homogenates are centrifuged for 15 minutes at 13,000 g. 40 μg of total protein is separated on 8-12% gel and transferred onto polyvinylidene difluoride (Millipore, Mass., USA; PVDF) membranes at 300 mA for 2 hours. To measure the level of immunoglobulin, the membranes were incubated overnight at 4° C. with anti Rat IgG conjugated to biotin. bEND 3 cells are subjected to hypoxia/reperfusion for 9 hours and then lysed on ice in 100 μl of RIPA buffer. Cell lysated are boiled and then electrophoresed in 12% SDS-PAGE acrylamide gels, transferred onto PVDF membranes, and incubated for 1 hour in TBS-T (tris-buffered saline and 0.1% Tween 20) containing 5% bovine serum albumin (BSA). Membranes are then incubated overnight at 4° C. with primary antibodies against occludin (Invitrogen, Calif., USA; 1:1000), claudin-5 (Invitrogen; 1:1000), and ZO-1 (Invitrogen; 1:1000), washed in TBS-T, and incubated for 1 hour at room temperature with corresponding peroxidase-conjugated secondary antibodies (1:5000; KPL, Gaithersburg, Md.). All blots are stripped and re-incubated with β-actin antibodies (1:5000, Sigma) as a loading control. The peroxidase reaction is developed with an ECL-plus detection kit (Amersham BioScience, Piscataway, N.J.). Intensity of the bands is measured by an Image Gauge version. 4.0 program (FUJI Photo Film Co., Ltd).\nThe bEnd 3 cells grown to confluence on coverslips are subjected to the indicated treatments. […]\nTo mimic ischemia-like conditions in vitro, immortalized mouse brain endothelial (bEND3) cells were exposed to 6 hours of hypoxia and 3 hours of reoxygeneation with or without the administration of tPA at a dose of 20 μ/ml. […] BBB integrity was evaluated by transendothelial membrane electrical resistance (TEER) measurement, MMP-9 activity, and the alteration of tight junction proteins following in vitro H/R injury."}, "[3]": {"tested_on": "Male Sprague Dawley (SD) rats subjected to focal ischemia", "experiment": "Focal ischemia with delayed tPA in rats: cerebral hemorrhage, infarct volume, brain swelling", "type": "in vivo, rat", "details": "24 hours post-stroke; tPA 5 mg/kg via femoral vein at 4.5 hours; progesterone i.p. at 2 hours", "method": "2,3,5-tripheynltetrazolium (TTC)-stained brain sections are used for quantification of intracerebral hemorrhage with a spectrophotometric hemoglobin assay. Samples typically are collected 19.5 hours after injury. The brain tissue is homogenized in 2 ml 0.05 M tris buffered saline and tween (TBS-T) followed by a 30-minute centrifugation (12,000 rpm) and re-centrifugation for 15-minutes at 10,000 rpm. Then, 200 μl reagent (QuantiChrom™ Hemoglobin Assay Kit; BioAssay Systems) is added to a 50 μl supernatant. Optical density is measured at 405 nm with a spectrophotometer.\nBrain edema/swelling are estimated by measuring the hemispheric areas of each 2-mm thick brain slices using Image J software (NIH, Bethesda, […]., USA), typically 24 hours after MCAO. Edema formation is calculated as hemispheric enlargement and expressed as a percentage of the normal areas in the contralateral hemisphere.\nMale Sprague Dawley (SD) rats were subjected to focal ischemia, reperfused at 4.5 hours and then treated with tPA (5 mg/kg body weight; via femoral vein) at 4.5 hours or by combined progesterone (given by intraperitoneal injection at 2 hours) plus tPA (given at 4.5 hours). Rats were killed at 24 hours after ischemia, brains were perfused with saline, and coronal sections (2 mm thick) were stained with 2,3,5-triphenyltetrazolium chloride to quantify infarct volumes. […]"}, "[4]": {"tested_on": "blood-brain barrier (BBB)", "experiment": "BBB disruption: serum IgG in ischemic cortex by Western blot", "type": "in vivo, rat", "details": "24 hours after ischemic injury and tPA treatment"}}}
{"substance": "tPA: serum protease acting specifically on serum plasminogen; also known as alteplase, available commercially as Activase", "values": [{"measurement": "MMP-9 activity (FRET peptide)", "setting": "[1]", "result": "significantly higher"}, {"measurement": "Detected levels of occludin (immunofluorescence)", "setting": "[2]; bEND3 cells exposed to H/R and tPA for 9 hours, progesterone pretreatment", "result": "reduced"}, {"measurement": "Expression of occludin (Western blot)", "setting": "[2]; bEND3 cells, tPA with H/R", "result": "markedly decreased"}, {"measurement": "Hemorrhage volume (hemoglobin in perfused brain)", "setting": "[3]", "result": "induced cerebral hemorrhage"}, {"measurement": "Increase of IgG levels in ischemic cortex", "setting": "[4]", "result": "up to 2 ×"}]}
